The target in one data set is T1, CDH11 (Homo sapiens, UniProt P55287).
T1 sequence (P55287 54-796): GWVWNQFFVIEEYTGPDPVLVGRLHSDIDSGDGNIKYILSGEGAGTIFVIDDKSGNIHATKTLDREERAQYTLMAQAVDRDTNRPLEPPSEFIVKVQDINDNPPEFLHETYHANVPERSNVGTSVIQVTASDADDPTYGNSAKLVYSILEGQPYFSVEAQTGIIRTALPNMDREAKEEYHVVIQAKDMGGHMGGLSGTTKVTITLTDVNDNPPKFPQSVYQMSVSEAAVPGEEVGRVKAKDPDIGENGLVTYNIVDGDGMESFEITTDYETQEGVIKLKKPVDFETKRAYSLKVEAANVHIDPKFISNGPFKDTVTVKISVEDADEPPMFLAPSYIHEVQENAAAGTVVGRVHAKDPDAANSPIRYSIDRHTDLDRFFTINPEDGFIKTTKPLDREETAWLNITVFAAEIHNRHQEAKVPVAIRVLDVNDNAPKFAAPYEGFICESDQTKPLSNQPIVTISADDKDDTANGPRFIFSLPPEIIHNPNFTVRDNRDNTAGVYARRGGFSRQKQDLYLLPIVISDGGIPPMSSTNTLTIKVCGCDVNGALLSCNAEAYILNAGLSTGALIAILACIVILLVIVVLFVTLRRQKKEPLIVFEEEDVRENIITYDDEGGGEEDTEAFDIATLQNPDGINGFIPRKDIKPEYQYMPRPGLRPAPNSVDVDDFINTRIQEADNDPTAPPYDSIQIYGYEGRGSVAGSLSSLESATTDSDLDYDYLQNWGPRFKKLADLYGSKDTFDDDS
As to conditions: in vitro; previously characterized and validated; cited from earlier work.

Data set [1] has as its system mT3 pancreatic cancer cells. Description: s.c. mT3 tumor growth in immunocompromised Rag1-mutant mice. Type of data set: in vivo, mouse. As to conditions: SD133 40 mg/kg, pre-existing tumors 100 mm^3, Rag1-mutant mice without mature T and B cells (FIG. 5I). The text has this: (§1) The experimental protocols were approved by the Georgetown University Animal Care and Use Committee. A pair of CDH11^−/− mice (Horikawa et al. Dev. Biol. 215: 182-189 (1999)) was kindly provided by Dr. Michael Brenner from Harvard University. A breeding pair of p48-Cre;LSL-Kras^G12D/+;LSL-Trp53^R172H/+ (KPC) mice (Hingorani et al. Cancer Cell 7: 469-483 (2005)) was provided by Dr. Anton Wellstein from Georgetown University. C57BL/6J mice (Cat #000664; Research Resource Identifier (RRID): IMSR_JAX:000664) and Rag1-mutant mice on C57BL/6J background (Cat #002216; RRID: IMSR_JAX:002216) were purchased from The Jackson Laboratory (Bar Harbor, Me.). In transplant experiments, 12-week old C57BL/6J and Rag1-mutant (on C57BL/6J background) mice were bilaterally subcutaneously (s.c.) injected with 5×10^5 mT3 pancreatic cancer cells, derived from a Kras^+/LSL-G12D;Trp53^+/LSL-R172H;Pdx-Cre mouse on C57BL/6 background. Both genders of mice were equally represented throughout all in vivo experiments. Mice were housed in specific pathogen free environment under standard conditions. See, Bandrowski et al. “The Resource Identification Initiative: A cultural shift in publishing,” F1000Res 4: 134 (2015), regarding Research Resource Identifiers (RRIDs), […]

The nature of data set [2]: Body weight / toxicity of treated mT3 tumor-bearing mice. The data set is classed as in vivo, mouse. The protocol: Body weight of C57BL/6J mice engrafted with syngeneic mT3 cells and treated with (A) vehicle (DMSO), (B) gemcitabine, (C) CDH11 mAb, (D) CDH11 mAb+ gemcitabine, (E) SD133 at 150 mg/kg for 2 weeks, (F) SD133 at 150 mg/kg for 2 weeks+ gemcitabine; (G) vehicle (10% DMSO in 30% PEG400), (H) SD133 at 150 mg/kg for 5 weeks, and mice with pre-existing mT3 tumors treated with (I) SD133 at 40 mg/kg, and (J) SD133 at 10 mg/kg. Mouse body weight was measured once or twice a week. Body weight of immunodeficient Rag1-mutant mice on C57BL/6J background with pre-existing syngeneic mT3 tumors treated with (K) vehicle (10% DMSO in 30% PEG400), and (L) SD133 at 40 mg/kg. Gender of mice is indicated in the graphs by commonly used gender symbols. The dose, route and treatment schedule are indicated in colored bars under the x-axes.
(§2) Anti-PD1 (InVivoPlus anti-mouse PD1 (CD279), clone RMP1-14, Cat #BP0146, Bio X Cell (Lebanon, N.H.)) was administered intraperitoneally (i.p.) at 250 μg/mouse, 2× week. Gemcitabine (G-4177, LC Laboratories (Woburn, Mass.)) was administered i.p. at 100 mg/kg, 2× week. Treatment with CDH11 monoclonal antibody (mAb), SYN0012 (Roche (Basel, Switzerland)) was administered i.p. at 10 mg/kg, 2× week. Treatment with a small molecule CDH11-inhibitor, SD133, was administered i.p. at 150 mg/kg, 40 mg/kg or 10 mg/kg, 4× week. Stock solution of SD133 at 375 mg/mL was made in DMSO (Sigma (St. Louis, Mo.)), and further diluted in 30% PEG400 (Sigma).

The subject of data set [3] is mT3 pancreatic cancer cells. In words: s.c. mT3 pancreatic tumor growth in immunocompetent C57BL/6J transplant mice. Type of data set: in vivo, mouse. To be noted: for growth rate of pre-existing tumors: started at average tumor volume 100 mm^3 (FIG. 5H).
Description: The experimental protocols were approved by the Georgetown University Animal Care and Use Committee. A pair of CDH11^−/− mice (Horikawa et al. Dev. Biol. 215: 182-189 (1999)) was kindly provided by Dr. Michael Brenner from Harvard University. A breeding pair of p48-Cre;LSL-Kras^G12D/+;LSL-Trp53^R172H/+ (KPC) mice (Hingorani et al. Cancer Cell 7: 469-483 (2005)) was provided by Dr. Anton Wellstein from Georgetown University. C57BL/6J mice (Cat #000664; Research Resource Identifier (RRID): IMSR_JAX:000664) and Rag1-mutant mice on C57BL/6J background (Cat #002216; RRID: IMSR_JAX:002216) were purchased from The Jackson Laboratory (Bar Harbor, Me.). In transplant experiments, 12-week old C57BL/6J and Rag1-mutant (on C57BL/6J background) mice were bilaterally subcutaneously (s.c.) injected with 5×10^5 mT3 pancreatic cancer cells, derived from a Kras^+/LSL-G12D;Trp53^+/LSL-R172H;Pdx-Cre mouse on C57BL/6 background. Both genders of mice were equally represented throughout all in vivo experiments. Mice were housed in specific pathogen free environment under standard conditions. See, Bandrowski et al. “The Resource Identification Initiative: A cultural shift in publishing,” F1000Res 4: 134 (2015), regarding Research Resource Identifiers (RRIDs),
as §2

A further data set has as its system KPC mice (PDAC). Description: Survival of KPC transgenic PDAC mice under treatment. The data set is classed as in vivo, mouse.
Description: as §1

Setting [4] is: single agent, mT3-engrafted mice (FIG. 11).

Entries after “also recorded” stand apart in the source; their conditions may differ.

On to `Oc1ccc(-c2cccnc2-c2ccccc2)cc1` [SD133], for which the “affinity of binding to the CDH11 binding pocket” value at CDH11 is “low μM”. In addition, the tumor growth result in data set [1] is “did not suppress tumor growth”; in data set [3] (SD133 150 mg/kg continued throughout the study, 5 weeks (FIG. 5G)) it was “reduced tumor growth was observed for the duration of the treatment”; in data set [3] (SD133 i.p. 150 mg/kg 4x week for 2 weeks, beginning on day 2 after cancer cell injection (FIG. 5E)), “marked reduction in tumor growth”. Besides, the mouse body weight entry in data set [2] (in combination with gemcitabine, mT3-engrafted C57BL/6J mice (FIG. 11)) is given as “does not affect mouse body weight”; in data set [2] (setting [4]), “no decrease in animal weight; also recorded: does not affect mouse body weight”. For the same compound, the toxicity result in data set [2] (mouse, in vivo) is recorded as “no sign of toxicity”. Also, the “growth rate of pre-existing tumors” value in data set [3] (SD133 10 mg/kg) and in data set [3] (SD133 40 mg/kg) was “significantly reduced” throughout. Moreover, in data set [3] (SD133 for 2 weeks + gemcitabine i.p. 100 mg/kg 2x week (FIG. 5F)), the “combinatorial effect with gemcitabine on tumor growth” value is listed as “not observed”. For the same compound, the “tumor size versus control after treatment discontinued” value in data set [3] (after the 2-week SD133 treatment was discontinued) is listed as “remained significantly smaller than tumors in control animals”. In data set [3] (immunocompetent mT3 model, summary statement), the “efficacy as a monotherapy (summary)” value was “remarkably effective”.
Consider `Nc1ccn([C@@H]2O[C@H](CO)[C@@H](O)C2(F)F)c(=O)n1` [gemcitabine, reference compound], for which the mouse body weight result in data set [2] (setting [4]) is recorded as “does not affect mouse body weight”. In addition, in the data set with KPC mice (PDAC) (KPC/CDH11-deficient mice, gemcitabine 6 weeks starting at 100 days of age), the “first PDAC-related death” value was 165 days. Also, the “overall survival versus untreated KPC/CDH11-deficient group” value with KPC mice (PDAC) (gemcitabine 6 weeks starting at 100 days of age (FIG. 4B)) was “improved significantly”. Also, in data set [3] (monotherapy, gemcitabine i.p. 100 mg/kg 2x week or CDH11 mAb i.p. 10 mg/kg 2x week (FIG. 5A, 5B)), the tumor growth entry is given as “did not reduce tumor growth”.

Values taken from patent US20230210849A1, “CADHERIN-11 INHIBITOR FORMULATION AND ITS USES IN IMMUNOTHERAPY” (GEORGETOWN UNIVERSITY, priority 2020, published 2023).
